Assay results published in patent US20260098053A1, “COMPOSITIONS AND METHODS FOR TREATING CNS DISORDERS” (SAGE THERAPEUTICS, INC., priority 2019, published 2026).

molecular target: [35S]-TBPS binding, rat brain cortical membranes; assay: Steroid inhibition of [35S]-TBPS binding; conditions: Table 4, 3 nM [35S]-TBPS, in the presence of 5 mM GABA, read-out: TBPS IC50
Experimental: [35S]-t-Butylbicyclophosphorothionate (TBPS) binding assays using rat brain cortical membranes in the presence of 5 mM GABA has been described (Gee et al, J. Pharmacol. Exp. Ther. 1987, 241, 346-353; Hawkinson et al, Mol. Pharmacol. 1994, 46, 977-985; Lewin, A. H et al., Mol. Pharmacol. 1989, 35, 189-194).
Briefly, cortices are rapidly removed following decapitation of carbon dioxide-anesthetized Sprague-Dawley rats (200-250 g). The cortices are homogenized in 10 volumes of ice-cold 0.32 M sucrose using a glass/teflon homogenizer and centrifuged at 1500×g for 10 min at 4° C. The resultant supernatants are centrifuged at 10,000×g for 20 min at 4° C. to obtain the P2 pellets. The P2 pellets are resuspended in 200 mM NaCl/50 mM Na—K phosphate pH 7.4 buffer and centrifuged at 10,000×g for 10 min at 4° C. This washing procedure is repeated twice and the pellets are resuspended in 10 volumes of buffer. Aliquots ([…]) of the membrane suspensions are incubated with 3 nM [^35S]-TBPS and […] aliquots of test drug dissolved in dimethyl sulfoxide (DMSO) (final 0.5%) in the presence of 5 mM GABA. The incubation is brought to a final volume of 1.0 mL with buffer. Nonspecific binding is determined in the presence of […] and ranged from 15 to 25%. Following a 90 min incubation at room temp, the assays are terminated by filtration through glass fiber filters (Schleicher and Schuell No. 32) using a cell harvester (Brandel) and rinsed three times with ice-cold buffer. Filter bound radioactivity is measured by liquid scintillation spectrometry. Non-linear curve fitting of the overall data for each drug averaged for each concentration is done using Prism (GraphPad). […] The concentration of test compound producing 50% inhibition (IC50) of specific binding and the maximal extent of inhibition (Imax) are determined for the individual experiments with the same model used for the overall data and then the means±SEM.s of the individual experiments are calculated.
Various compounds are or can be screened to determine their potential as modulators of [^35S]-TBPS binding in vitro. These assays are or can be performed in accordance with the above

Row | SMILES | IC50
1 | C[C@@]1(O)CCC[C@@]2(C)[C@H](CC[C@@H]3[C@@H]2CC[C@]2(C)[C@H](C(=O)Cn4cc(C#N)cn4)CCC[C@@H]32)C1 [Example 17, 1-(2-((1R,4aS,4bR,6aR,8R,11aS,11bS,13aS)-8-hydroxy-8,11a,13a-trimethyloctadecahydro-1H-cyclohepta[a]phenanthren-1-yl)-2-oxoethyl)-1H-pyrazole-4-carbonitrile] | > 1000 nM
2 | COC[C@]1(O)CC[C@H]2CC[C@@H]3[C@H](CC[C@]4(C)[C@@H](C(=O)Cn5cc(C#N)cn5)CCC[C@@H]34)[C@@]2(C)CC1 [Example 55, 1-(2-((1S,4aS,4bR,6aR,9S,11aS,11bS,13aS)-9-hydroxy-9-(methoxymethyl)-11a,13a-dimethyloctadecahydro-1H-cyclohepta[a]phenanthren-1-yl)-2-oxoethyl)-1H-pyrazole-4-carbonitrile] | 100 to 1000 nM
3 | CC[C@]12CC[C@@](C)(O)C[C@H]1CC[C@H]1[C@@H]3CCCC[C@H](C(C)=O)[C@@]3(C)CC[C@@H]12 [Example 22] | < 100 nM
4 | Cc1nnnn1CC(=O)[C@H]1CCCC[C@H]2[C@@H]3CC[C@@H]4C[C@](C)(O)CCC[C@]4(C)[C@H]3CC[C@]12C [Example 63, 1-((1S,5aS,5bR,7aR,9R,12aS,12bS,14aS)-9-hydroxy-9,12a,14a-trimethylicosahydrodicyclohepta[a,f]naphthalen-1-yl)-2-(5-methyl-1H-tetrazol-1-yl)ethanone] | 100 to 1000 nM
5 | CC[C@]12CC[C@H]3[C@@H](CC[C@@H]4C[C@](C)(O)CCC[C@@]43C)[C@@H]1CC[C@@H]2C(C)=O [Example 29, 1-((1S,3aS,3bR,5aR,7R,10aS,10bS,12aS)-12a-ethyl-7-hydroxy-7,10a-dimethyloctadecahydrocyclohepta[a]cyclopenta[f]naphthalen-1-yl)ethanone] | < 100 nM
6 | CC[C@@]1(O)CCC[C@@]2(C)[C@@H](CC[C@@H]3[C@@H]2CC[C@]2(C)[C@@H](C(=O)Cn4cc(C#N)cn4)CCC[C@@H]32)C1 [Example 42, 1-(2-((1S,4aS,4bR,6aS,8R,11aS,11bS,13aS)-8-ethyl-8-hydroxy-11a,13a-dimethyloctadecahydro-1H-cyclohepta[a]phenanthren-1-yl)-2-oxoethyl)-1H-pyrazole-4-carbonitrile] | 100 to 1000 nM
7 | C[C@]1(O)CCC2=CC[C@H]3[C@@H]4CCC[C@H](C(=O)Cn5cc(C#N)cn5)[C@@]4(C)CC[C@@H]3[C@@]2(C)CC1 [Example 58, 1-(2-((1S,4aS,4bS,9S,11aR,11bS,13aS)-9-hydroxy-9,11a,13a-trimethyl-2,3,4,4a,4b,5,7,8,9,10,11,11a,11b,12,13,13a-hexadecahydro-1H-cyclohepta[a]phenanthren-1-yl)-2-oxoethyl)-1H-pyrazole-4-carbonitrile] | < 100 nM
8 | CC(=O)[C@H]1CCC[C@H]2[C@@H]3CC[C@@H]4C[C@](C)(O)CCC[C@]4(C)[C@H]3CC[C@]12C [Example 15, 1-((1S,4aS,4bR,6aR,8R,11aS,11bS,13aS)-8-hydroxy-8,11a,13a-trimethyloctadecahydro-1H-cyclohepta[a]phenanthren-1-yl)ethan-1-one] | < 100 nM
9 | CC[C@]12CC[C@H]3[C@@H](CC[C@@H]4CC[C@@](O)(COC)CC[C@@H]43)[C@@H]1CC[C@@H]2C(C)=O [Example 32, 1-((1S,3aS,3bR,5aR,8S,10aS,10bR,12aS)-12a-ethyl-8-hydroxy-8-(methoxymethyl)octadecahydrocyclohepta[a]cyclopenta[f]naphthalen-1-yl)ethanone] | 100 to 1000 nM
10 | C[C@@]1(O)CCC[C@@]2(C)[C@H](CC[C@@H]3[C@@H]2CC[C@]2(C)[C@H](C(=O)Cn4cc(C#N)cn4)CCCC[C@@H]32)C1 [Example 61, 1-(2-((1R,5aS,5bR,7aR,9R,12aS,12bS,14aS)-9-hydroxy-9,12a,14a-trimethylicosahydrodicyclohepta[a,f]naphthalen-1-yl)-2-oxoethyl)-1H-pyrazole-4-carbonitrile] | 100 to 1000 nM
11 | CC[C@]1(O)CC[C@H]2CC[C@@H]3[C@H](CC[C@]4(C)[C@H](C(=O)Cn5cc(C#N)cn5)CCC[C@@H]34)[C@H]2CC1 [Example 48, 1-(2-((1R,4aS,4bR,6aR,9S,11aS,11bR,13aS)-9-ethyl-9-hydroxy-13a-methyloctadecahydro-1H-cyclohepta[a]phenanthren-1-yl)-2-oxoethyl)-1H-pyrazole-4-carbonitrile] | > 1000 nM
12 | COC[C@]1(O)CC[C@@H]2CC[C@@H]3[C@H](CC[C@]4(C)[C@@H](C(=O)Cn5cc(C#N)cn5)CCC[C@@H]34)[C@@]2(C)CC1 [Example 56, 1-(2-((1S,4aS,4bR,6aS,9S,11aS,11bS,13aS)-9-hydroxy-9-(methoxymethyl)-11a,13a-dimethyloctadecahydro-1H-cyclohepta[a]phenanthren-1-yl)-2-oxoethyl)-1H-pyrazole-4-carbonitrile] | 100 to 1000 nM
13 | C[C@]1(O)CC[C@H]2CC[C@@H]3[C@H](CC[C@]4(C)[C@@H](C(=O)CCn5cc(C#N)cn5)CCC[C@@H]34)[C@H]2CC1 [Example 51, 1-(3-((1S,4aS,4bR,6aR,9S,11aS,11bR,13aS)-9-hydroxy-9,13a-dimethyloctadecahydro-1H-cyclohepta[a]phenanthren-1-yl)-3-oxopropyl)-1H-pyrazole-4-carbonitrile] | 100 to 1000 nM
14 | CC(=O)[C@H]1CCC[C@H]2[C@@H]3CC[C@@H]4CC[C@](C)(O)CC[C@]4(C)[C@H]3CC[C@]12C [Example 53, 1-((1S,4aS,4bR,6aR,9S,11aS,11bS,13aS)-9-hydroxy-9,11a,13a-trimethyloctadecahydro-1H-cyclohepta[a]phenanthren-1-yl)ethanone] | > 1000 nM
15 | C[C@]1(O)CC[C@@H]2CC[C@@H]3[C@H](CC[C@]4(C)[C@@H](C(=O)CCn5cc(C#N)cn5)CCC[C@@H]34)[C@@]2(C)CC1 [Example 54, 1-(3-((1S,4aS,4bR,6aS,9S,11aS,11bS,13aS)-9-hydroxy-9,11a,13a-trimethyloctadecahydro-1H-cyclohepta[a]phenanthren-1-yl)-3-oxopropyl)-1H-pyrazole-4-carbonitrile] | 100 to 1000 nM

same assay, conditions: Table 5, 3 nM [35S]-TBPS, in the presence of 5 mM GABA, read-out: TBPS IC50

Row | SMILES | IC50
16 | Cc1nnnn1CC(=O)[C@H]1CCC[C@H]2[C@@H]3CC[C@H]4C[C@](C)(O)CC[C@@H]4[C@H]3CC[C@@H]21 [Example 81, 1-((1S,4aS,4bR,6aS,8R,10aS,10bR,12aS)-8-hydroxy-8-methyloctadecahydrochrysen-1-yl)-2-(5-methyl-1H-tetrazol-1-yl)ethanone] | < 100 nM
17 | Cc1nnn(CC(=O)[C@H]2CC[C@H]3[C@@H]4CC[C@H]5C[C@](C)(O)CC[C@@H]5[C@H]4CC[C@@H]32)n1 [Example 73, 1-((3R,5S,8R,9R,10S,13S,14S,17S)-3-hydroxy-3-methylhexadecahydro-1H-cyclopenta[a]phenanthren-17-yl)-2-(5-methyl-2H-tetrazol-2-yl)ethanone] | > 1000 nM
18 | CC[C@]12CC[C@@](C)(O)C[C@H]1CC[C@H]1[C@@H]3CC[C@H](C(=O)Cn4nnnc4C)[C@H]3CC[C@@H]12 [Example 82, 1-((3R,5R,8S,9S,10S,13S,14S,17S)-10-ethyl-3-hydroxy-3-methylhexadecahydro-1H-cyclopenta[a]phenanthren-17-yl)-2-(5-methyl-1H-tetrazol-1-yl)ethanone] | < 100 nM
19 | CC(=O)[C@@H]1CCC[C@H]2[C@@H]3CC[C@@H]4C[C@](C)(O)CC[C@@H]4[C@H]3CC[C@@H]21 [Example 75, 1-((1R,4aS,4bR,6aR,8R,10aS,10bR,12aS)-8-hydroxy-8-methyloctadecahydrochrysen-1-yl)-ethanone] | > 1000 nM
20 | CC(=O)[C@H]1CCC[C@H]2[C@@H]3CC[C@@H]4C[C@](C)(O)CC[C@@H]4[C@H]3CC[C@@H]21 [Example 77, 1-((1S,4aS,4bR,6aR,8R,10aS,10bR,12aS)-8-hydroxy-8-methyloctadecahydrochrysen-1-yl)-ethanone] | < 100 nM

same assay, conditions: Table 6, 3 nM [35S]-TBPS, in the presence of 5 mM GABA, read-out: IC50

Row | SMILES | IC50
21 | CC(=O)[C@H]1CCC[C@H]2[C@@H]3CC[C@@H]4C[C@](C)(O)CC[C@]4(C4CC4)[C@H]3CC[C@]12C [Example 85, 1-((1S,4aS,4bS,6aR,8R,10aR,10bS,12aS)-10a-cyclopropyl-8-hydroxy-8,12a-dimethyloctadecahydrochrysen-1-yl)ethan-1-one] | < 100 nM
